# ChEMBL document CHEMBL2046360, “Hydrophobic Interactions Improve Selectivity to ERα for Ben-zothiophene SERMs” (ACS Med Chem Lett, 2012)
# Activity calls are given as the source filed them. The calls are words filed in the database; no cut-off is given here.
# Experiments:
# [1] = Cmax in rat at 10 mg/kg, po; type: ADME, organism-based; design: dose 10 mg/kg, route oral; details: in vivo
# [2] = Selectivity ratio of Ki for ERbeta to Ki for ERalpha
# [3] = test system: MCF7; assay: Antiproliferative activity against human MCF7 cells after 48 hrs by [3H]-thymidine incorporation assay; type: functional, cell-based
# [4] = target: T1, Estrogen receptor (Homo sapiens, UniProt P03372); assay: Displacement of [3H]estradiol from ERalpha after 4 hrs by scintillation counting
# T1 sequence (P03372 whole entry): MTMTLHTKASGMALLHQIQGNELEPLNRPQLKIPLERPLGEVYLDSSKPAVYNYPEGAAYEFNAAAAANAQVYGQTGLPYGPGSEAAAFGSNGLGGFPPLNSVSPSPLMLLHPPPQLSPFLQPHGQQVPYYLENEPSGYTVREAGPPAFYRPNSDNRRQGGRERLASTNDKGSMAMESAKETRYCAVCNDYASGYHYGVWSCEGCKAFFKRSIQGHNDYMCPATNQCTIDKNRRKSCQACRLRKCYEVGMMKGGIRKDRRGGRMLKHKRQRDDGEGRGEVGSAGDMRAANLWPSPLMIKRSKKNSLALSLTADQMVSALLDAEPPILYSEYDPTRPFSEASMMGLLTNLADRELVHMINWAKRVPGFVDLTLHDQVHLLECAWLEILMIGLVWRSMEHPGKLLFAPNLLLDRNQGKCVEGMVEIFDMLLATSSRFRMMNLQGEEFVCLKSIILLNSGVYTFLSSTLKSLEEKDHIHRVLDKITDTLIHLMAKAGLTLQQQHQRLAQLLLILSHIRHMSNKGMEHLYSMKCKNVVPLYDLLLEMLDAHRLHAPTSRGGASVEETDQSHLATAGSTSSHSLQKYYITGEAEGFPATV
# [5] = target: T1, Estrogen receptor; assay: Binding affinity to ERalpha ligand binding domain
# [6] = target: Estrogen receptor beta (Homo sapiens, UniProt Q92731); assay: Displacement of [3H]estradiol from ERbeta after 4 hrs by scintillation counting
# [7] = test system: Rattus norvegicus; assay: AUC (0 to 24 hrs) in rat at 10 mg/kg, po; type: ADME, organism-based, Plasma; design: time < 24 hr, dose 10 mg/kg, route oral; details: in vivo
# [8] = test system: Rattus norvegicus; assay: […] Sprague-Dawley rat assessed as reduction of bone loss by measuring volumetric bone mineral density administered qd after 4 days post ovariectomy measured after 5 weeks; type: functional, organism-based
# [9] = test system: Rattus norvegicus; assay: Antiestrogenic activity in young Sprague-Dawley rat assessed as inhibition of estrogen-induced uterine hypertrophy at 0.01 to 1 mg/kg, po for 3 days; type: functional, organism-based
# Estrogen receptor beta, sequence (Q92731 whole entry): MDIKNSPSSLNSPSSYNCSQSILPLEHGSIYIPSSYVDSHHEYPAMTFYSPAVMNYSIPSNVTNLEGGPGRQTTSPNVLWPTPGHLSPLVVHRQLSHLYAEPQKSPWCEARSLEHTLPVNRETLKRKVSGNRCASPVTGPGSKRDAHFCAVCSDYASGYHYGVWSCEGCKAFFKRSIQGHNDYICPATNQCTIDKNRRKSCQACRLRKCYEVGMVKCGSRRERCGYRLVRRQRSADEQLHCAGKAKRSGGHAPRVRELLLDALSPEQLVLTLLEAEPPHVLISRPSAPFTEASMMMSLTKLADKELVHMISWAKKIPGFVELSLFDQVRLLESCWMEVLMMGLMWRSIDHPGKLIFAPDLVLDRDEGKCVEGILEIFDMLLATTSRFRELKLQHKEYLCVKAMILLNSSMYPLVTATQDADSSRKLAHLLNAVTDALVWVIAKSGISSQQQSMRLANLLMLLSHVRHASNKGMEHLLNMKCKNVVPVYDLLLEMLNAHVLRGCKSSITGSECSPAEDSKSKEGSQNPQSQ
structure (smiles),measurement,setting,value
CCCCc1ccc(-c2sc3cc(O)ccc3c2C(=O)c2ccc(OCCN3CCCCC3)cc2)cc1,Cmax,[1],210 ng/mL
same,Ratio Ki,[2],140
same,IC50,[3],33 nM
same,Ki,[4],0.25 nM
same,Ki,[5],0.25 nM
same,Ki,[6],35 nM
same,AUC,[7],2337 ng·h/mL
same,Activity,[8],Dose-dependent effect
same,inhibition,[9],Active
